Marks after values point to notes of the source that are not given here.
System: neuron apoptosis-operated rats
Assay: Example 1 body swing test
Assay type: in vivo, Sprague-Dawley (SD) rats
Experimental: Sensorimotor function was evaluated by use of limb placing de Ryck M et al., Stroke. 20:1383-90(1989)) and body swing (Borlongan and Sanberg, J Neurosci. 15:5372-8(1995)) tests. These tests were performed one day before neuron apoptosis to obtain a baseline and then at 1, 3, 7, 14, 21 and 28 days after neuron apoptosis. Behavioral tests were done before drug administration on days when both were scheduled. The investigator performing the surgery and behavioral assessments was blinded to treatment assignment.
Body swing tests: Animals were held approximately 2 cm from the base of its tail and elevated to an inch above a surface of a table. A swing was recorded whenever the rat moved its head out of the vertical axis to either side by more than 10° from vertical and then returned to the vertical position. Thirty total swings were counted per animal. After right-hemisphere neuron apoptosis, animals tend to swing to the contralateral (left) side. Thus, the numbers and percentages of body swings to the ipsilateral (right) side were recorded as a measure of recovery, with an intact animal scoring.
All data were expressed as mean±standard deviation (S.D.) of ten rats. Multiple comparison tests for different dose groups were conducted. Variance homogeneity was examined using the Levene test (Levene A, Clin Otalary, 1981; 6:145-51). […] Statistical analyses were conducted using SPSS (Release 14K, SPSS Inc., USA; Ludbrook, Clin Exp Pharmacol Physiol, 1997; 24:294-6). In addition, the percent changes between neuron apoptosis control and mirodenafil treated rats were calculated to help the understanding of the efficacy of test material as follow equation 3. Percentage changes as compared with neuron apoptosis control (%)=[((Data of mirodenafil treated groups−Data of neuron apoptosis control)/Data of neuron apoptosis control)×100] [EQUATION 3]

[1] = 0.5 mg/kg group, day 1 after operation (before drug administration)
[2] = 0.5 mg/kg group, day −1 (baseline)
[3] = 0.5 mg/kg s.c. once a day, day 3 after operation
[4] = 0.5 mg/kg s.c. once a day, day 7 after operation
[5] = 0.5 mg/kg s.c. once a day, day 14 after operation
[6] = 0.5 mg/kg s.c. once a day, day 21 after operation
[7] = 0.5 mg/kg s.c. once a day, day 28 after operation
[8] = 1 mg/kg group, day 1 after operation (before drug administration)
[9] = 1 mg/kg group, day −1 (baseline)
[10] = 1 mg/kg s.c. once a day, day 3 after operation
[11] = 1 mg/kg s.c. once a day, day 7 after operation
[12] = 1 mg/kg s.c. once a day, day 14 after operation
[13] = 1 mg/kg s.c. once a day, day 21 after operation
[14] = 1 mg/kg s.c. once a day, day 28 after operation
[15] = 2 mg/kg group, day 1 after operation (before drug administration)
[16] = 2 mg/kg group, day −1 (baseline)
[17] = 2 mg/kg s.c. once a day, day 3 after operation
[18] = 2 mg/kg s.c. once a day, day 7 after operation
[19] = 2 mg/kg s.c. once a day, day 14 after operation
[20] = 2 mg/kg s.c. once a day, day 21 after operation
[21] = 2 mg/kg s.c. once a day, day 28 after operation

**Q.** With `CCCOc1ccc(S(=O)(=O)N2CCN(CCO)CC2)cc1-c1nc2c(CCC)cn(CC)c2c(=O)[nH]1` [Mirodenafil, mirodenafil] as the compound, how does the “The numbers of body swings to the ipsilateral right sides/total 30 body swings” value [1] read?
**A.** Its value is 1.40 ± 1.17^a.

**Q.** And the “The percentages of body swings to the ipsilateral right sides/total 30 body swings” value [1]?
**A.** Its value is 4.67 ± 3.91^a %.

**Q.** What about the “The numbers of body swings to the ipsilateral right sides/total 30 body swings” value [2] of the same compound?
**A.** Its value is 15.10 ± 0.99.

**Q.** And the “The percentages of body swings to the ipsilateral right sides/total 30 body swings” value [2]?
**A.** The value was 50.33 ± 3.31%.

**Q.** And the “The numbers of body swings to the ipsilateral right sides/total 30 body swings” value [3]?
**A.** Its value is 2.10 ± 1.37^a.

**Q.** And the “The percentages of body swings to the ipsilateral right sides/total 30 body swings” value [3]?
**A.** Its value is 7.00 ± 4.57^a %.

**Q.** And the “The numbers of body swings to the ipsilateral right sides/total 30 body swings” value [4]?
**A.** The value was 2.40 ± 1.26^a.

**Q.** And the “The percentages of body swings to the ipsilateral right sides/total 30 body swings” value [4]?
**A.** Its value is 8.00 ± 4.22^a %.

**Q.** What about the “The numbers of body swings to the ipsilateral right sides/total 30 body swings” value [5] of the same compound?
**A.** The value was 4.20 ± 1.62^ac.

**Q.** And the “The percentages of body swings to the ipsilateral right sides/total 30 body swings” value [5]?
**A.** The value was 14.00 ± 5.40^ac %.

**Q.** What about the “The numbers of body swings to the ipsilateral right sides/total 30 body swings” value [6] of the same compound?
**A.** Its value is 5.40 ± 1.26^ab.

**Q.** What about the “The percentages of body swings to the ipsilateral right sides/total 30 body swings” value [6] of the same compound?
**A.** The value was 18.00 ± 4.22^ab %.

**Q.** And the “The numbers of body swings to the ipsilateral right sides/total 30 body swings” value [7]?
**A.** Its value is 6.20 ± 1.99^ac.

**Q.** What about the “The percentages of body swings to the ipsilateral right sides/total 30 body swings” value [7] of the same compound?
**A.** Its value is 20.67 ± 6.63^ac %.

**Q.** And the “numbers and percentages of body swings to ipsilateral right sides, change as compared with neuron apoptosis control” value (0.5 mg/kg, 3 days after surgery)?
**A.** Its value is 16.67%.

**Q.** What about the “numbers and percentages of body swings to ipsilateral right sides, change as compared with neuron apoptosis control” value (0.5 mg/kg, 7 days after surgery) of the same compound?
**A.** The value was 9.09%.

**Q.** And the “numbers and percentages of body swings to ipsilateral right sides, change as compared with neuron apoptosis control” value (0.5 mg/kg, 14 days after surgery)?
**A.** Its value is 44.83%.

**Q.** And the “numbers and percentages of body swings to ipsilateral right sides, change as compared with neuron apoptosis control” value (0.5 mg/kg, 21 days after surgery)?
**A.** Its value is 50.00%.

**Q.** What about the “numbers and percentages of body swings to ipsilateral right sides, change as compared with neuron apoptosis control” value (0.5 mg/kg, 28 days after surgery) of the same compound?
**A.** Its value is 44.19%.

**Q.** And the “The numbers of body swings to the ipsilateral right sides/total 30 body swings” value [8]?
**A.** The value was 1.30 ± 0.95^a.

**Q.** And the “The percentages of body swings to the ipsilateral right sides/total 30 body swings” value [8]?
**A.** Its value is 4.33 ± 3.16^a %.

**Q.** What about the “The numbers of body swings to the ipsilateral right sides/total 30 body swings” value [9] of the same compound?
**A.** Its value is 15.10 ± 1.29.

**Q.** What about the “The percentages of body swings to the ipsilateral right sides/total 30 body swings” value [9] of the same compound?
**A.** Its value is 50.33 ± 4.29%.

**Q.** What about the “The numbers of body swings to the ipsilateral right sides/total 30 body swings” value [10] of the same compound?
**A.** Its value is 2.70 ± 0.82^a.

**Q.** What about the “The percentages of body swings to the ipsilateral right sides/total 30 body swings” value [10] of the same compound?
**A.** The value was 9.00 ± 2.74^a %.

**Q.** And the “The numbers of body swings to the ipsilateral right sides/total 30 body swings” value [11]?
**A.** Its value is 3.10 ± 0.88^a.

**Q.** What about the “The percentages of body swings to the ipsilateral right sides/total 30 body swings” value [11] of the same compound?
**A.** Its value is 10.33 ± 2.92^a %.

**Q.** What about the “The numbers of body swings to the ipsilateral right sides/total 30 body swings” value [12] of the same compound?
**A.** The value was 5.80 ± 1.23^ab.

**Q.** What about the “The percentages of body swings to the ipsilateral right sides/total 30 body swings” value [12] of the same compound?
**A.** The value was 19.33 ± 4.10^ab %.

**Q.** What about the “The numbers of body swings to the ipsilateral right sides/total 30 body swings” value [13] of the same compound?
**A.** The value was 7.30 ± 1.89^ab.

**Q.** And the “The percentages of body swings to the ipsilateral right sides/total 30 body swings” value [13]?
**A.** The value was 24.33 ± 6.30^ab %.

**Q.** And the “The numbers of body swings to the ipsilateral right sides/total 30 body swings” value [14]?
**A.** Its value is 11.50 ± 1.58^ab.

**Q.** What about the “The percentages of body swings to the ipsilateral right sides/total 30 body swings” value [14] of the same compound?
**A.** The value was 38.33 ± 5.27^ab %.

**Q.** And the “numbers and percentages of body swings to ipsilateral right sides, change as compared with neuron apoptosis control” value (1 mg/kg, 3 days after surgery)?
**A.** The value was 50.00%.

**Q.** What about the “numbers and percentages of body swings to ipsilateral right sides, change as compared with neuron apoptosis control” value (1 mg/kg, 7 days after surgery) of the same compound?
**A.** The value was 40.91%.

**Q.** And the “numbers and percentages of body swings to ipsilateral right sides, change as compared with neuron apoptosis control” value (1 mg/kg, 14 days after surgery)?
**A.** The value was 100.00%.

**Q.** What about the “numbers and percentages of body swings to ipsilateral right sides, change as compared with neuron apoptosis control” value (1 mg/kg, 21 days after surgery) of the same compound?
**A.** Its value is 102.78%.

**Q.** And the “numbers and percentages of body swings to ipsilateral right sides, change as compared with neuron apoptosis control” value (1 mg/kg, 28 days after surgery)?
**A.** Its value is 167.44%.

**Q.** What about the “The numbers of body swings to the ipsilateral right sides/total 30 body swings” value [15] of the same compound?
**A.** Its value is 1.20 ± 0.63^a.

**Q.** And the “The percentages of body swings to the ipsilateral right sides/total 30 body swings” value [15]?
**A.** The value was 4.00 ± 2.11^a %.

**Q.** What about the “The numbers of body swings to the ipsilateral right sides/total 30 body swings” value [16] of the same compound?
**A.** The value was 15.00 ± 1.15.

**Q.** What about the “The percentages of body swings to the ipsilateral right sides/total 30 body swings” value [16] of the same compound?
**A.** The value was 50.00 ± 3.85%.

**Q.** And the “The numbers of body swings to the ipsilateral right sides/total 30 body swings” value [17]?
**A.** The value was 3.00 ± 0.82^ac.

**Q.** What about the “The percentages of body swings to the ipsilateral right sides/total 30 body swings” value [17] of the same compound?
**A.** Its value is 10.00 ± 2.72^ac %.

**Q.** What about the “The numbers of body swings to the ipsilateral right sides/total 30 body swings” value [18] of the same compound?
**A.** Its value is 3.20 ± 0.63^ac.

**Q.** What about the “The percentages of body swings to the ipsilateral right sides/total 30 body swings” value [18] of the same compound?
**A.** Its value is 10.67 ± 2.11^ac %.

**Q.** What about the “The numbers of body swings to the ipsilateral right sides/total 30 body swings” value [19] of the same compound?
**A.** The value was 6.00 ± 1.56^ab.

**Q.** And the “The percentages of body swings to the ipsilateral right sides/total 30 body swings” value [19]?
**A.** The value was 20.00 ± 5.21^ab %.

**Q.** What about the “The numbers of body swings to the ipsilateral right sides/total 30 body swings” value [20] of the same compound?
**A.** The value was 8.80 ± 1.23^ab.

**Q.** What about the “The percentages of body swings to the ipsilateral right sides/total 30 body swings” value [20] of the same compound?
**A.** Its value is 29.33 ± 4.10^ab %.

**Q.** And the “The numbers of body swings to the ipsilateral right sides/total 30 body swings” value [21]?
**A.** The value was 11.10 ± 1.91^ab.

**Q.** And the “The percentages of body swings to the ipsilateral right sides/total 30 body swings” value [21]?
**A.** Its value is 37.00 ± 6.37^ab %.

**Q.** What about the “numbers and percentages of body swings to ipsilateral right sides, change as compared with neuron apoptosis control” value (2 mg/kg, 3 days after surgery) of the same compound?
**A.** Its value is 66.67%.

**Q.** What about the “numbers and percentages of body swings to ipsilateral right sides, change as compared with neuron apoptosis control” value (2 mg/kg, 7 days after surgery) of the same compound?
**A.** Its value is 45.45%.

**Q.** And the “numbers and percentages of body swings to ipsilateral right sides, change as compared with neuron apoptosis control” value (2 mg/kg, 14 days after surgery)?
**A.** The value was 106.90%.

**Q.** And the “numbers and percentages of body swings to ipsilateral right sides, change as compared with neuron apoptosis control” value (2 mg/kg, 21 days after surgery)?
**A.** The value was 144.44%.

**Q.** What about the “numbers and percentages of body swings to ipsilateral right sides, change as compared with neuron apoptosis control” value (2 mg/kg, 28 days after surgery) of the same compound?
**A.** Its value is 158.14%.

Reference: US10064865B2, “Composition comprising phosphodiesterase type 5 inhibitor for inhibiting apoptosis of nerve cells” (ARIBIO INC., priority 2012, dated 2018)
